Laboratory results as given in ChEMBL document CHEMBL1148828, “Deoxycholic acid-derived tetraoxane antimalarials and antiproliferatives(1)” (J Med Chem, 2007).

Key:
UO-31 = assay: Antiproliferative activity against human UO31 cells after 48 hrs; type: functional; details: Homo sapiens, UO-31, 48 h
CAKI-1 = assay: Antiproliferative activity against human CAKI1 cells after 48 hrs; type: functional; details: CAKI-1, 48 h; for CC50: read-out: LC50 (the source's name)
NCI-H522 = assay: Antiproliferative activity against human NCI-H522 cells after 48 hrs; type: functional; details: NCI-H522, 48 h
NCI = assay: Growth inhibition of human NCI DTP 60 cells; type: functional; details: Homo sapiens, NCI
IGROV-1 = assay: Antiproliferative activity against human IGROV1 cells after 48 hrs; type: functional; details: IGROV-1, 48 h
NCI-H460 = assay: Antiproliferative activity against human NCI-H460 cells after 48 hrs; type: functional; details: NCI-H460, 48 h; for CC50: read-out: LC50 (the source's name)
786-0 = assay: Antiproliferative activity against human 786-0 cells after 48 hrs; type: functional; details: Homo sapiens, 786-0, 48 h; for CC50: read-out: LC50 (the source's name)
[1] = Antiproliferative activity against human […] cells after 48 hrs; type: functional
Plasmodium falciparum [2] = assay: Antimalarial activity against Plasmodium falciparum W2; type: functional, organism-based
Plasmodium falciparum [3] = assay: Antimalarial activity against Plasmodium falciparum D6; type: functional, organism-based
MOLT-4 = assay: Antiproliferative activity against human MOLT4 cells after 48 hrs; type: functional; details: MOLT-4, 48 h
Plasmodium falciparum [4] = assay: Antimalarial activity against Plasmodium falciparum TM91C235; type: functional, organism-based
LOX IMVI = assay: Antiproliferative activity against human LOX IMVI cells after 48 hrs; type: functional; details: Homo sapiens, LOX IMVI, 48 h
DU-145 = assay: Antiproliferative activity against human DU145 cells after 48 hrs; type: functional; details: DU-145, 48 h
HOP-92 = assay: Antiproliferative activity against human HOP92 cells after 48 hrs; type: functional; details: Homo sapiens, HOP-92, 48 h
[5] = read-out: LC50 (the source's name)

Q: With `CC(=O)O[C@H]1C[C@H]2[C@@H]([C@H](OC(C)=O)C[C@@H]3CC4(CC[C@@]32C)OOC2(CCCCC2)OO4)[C@@H]2CC[C@H]([C@H](C)CCC(N)=O)[C@@]12C` as the compound, how does the GI50 (UO-31) read?
A: Its GI50 is < 10 nM.

Q: And the LC50 (UO-31)?
A: The LC50 was 40 nM.

Q: What about the TGI (UO-31) of the same compound?
A: The TGI was 14 nM.

Q: And the GI50 (CAKI-1)?
A: The GI50 was 200 nM.

Q: And the TGI (CAKI-1)?
A: Its TGI is 1120 nM.

Q: And the CC50 (CAKI-1)?
A: The CC50 was 3590 nM.

Q: And the GI50 (NCI-H522)?
A: The GI50 was 230 nM.

Q: What about the TGI (NCI-H522) of the same compound?
A: The TGI was 770 nM.

Q: And the CC50 (NCI-H522; [5])?
A: The CC50 was 3.02 µM.

Q: And the GI50 (NCI)?
A: Its GI50 is < 10 nM.

Q: And the GI50 (IGROV-1)?
A: The GI50 was 32 nM.

Q: And the LC50 (concentration killing 50% of cells) (IGROV-1)?
A: The LC50 (concentration killing 50% of cells) was 430 nM.

Q: And the TGI (IGROV-1)?
A: The TGI was 120 nM.

Q: And the GI50 (NCI-H460)?
A: Its GI50 is 550 nM.

Q: What about the TGI (NCI-H460) of the same compound?
A: Its TGI is 2070 nM.

Q: What about the CC50 (NCI-H460) of the same compound?
A: Its CC50 is 5.28 µM.

Q: What about the GI50 (786-0) of the same compound?
A: Its GI50 is 783 nM.

Q: What about the TGI (786-0) of the same compound?
A: The TGI was 2090 nM.

Q: And the CC50 (786-0)?
A: Its CC50 is 4570 nM.

Q: With `CCCNC(=O)CC[C@@H](C)[C@H]1CC[C@H]2[C@@H]3CC[C@@H]4CC5(CC[C@]4(C)[C@H]3C[C@H](OC(C)=O)[C@]12C)OOC1(CCCCC1)OO5` as the compound, how does the GI50 [1] read?
A: The GI50 was 110 nM.

Q: And the TGI [1]?
A: Its TGI is 650 nM.

Q: What about the CC50 [1, 5] of the same compound?
A: The CC50 was 6.82 µM.

Q: And the IC50 (Plasmodium falciparum [2]; Plasmodium falciparum, W2)?
A: The IC50 was 40.8 nM.

Q: And the IC90 (Plasmodium falciparum [2]; Plasmodium falciparum, W2)?
A: Its IC90 is 111 nM.

Q: And the IC50 (Plasmodium falciparum [3]; Plasmodium falciparum, D6)?
A: The IC50 was 74.3 nM.

Q: What about the IC90 (Plasmodium falciparum [3]; Plasmodium falciparum, D6) of the same compound?
A: Its IC90 is 115 nM.

Q: What about the GI50 (NCI) of the same compound?
A: Its GI50 is 110 nM.

Q: Which GI50 (MOLT-4) does the source give for `CC(=O)O[C@H]1C[C@H]2[C@@H](CC[C@@H]3CC4(CC[C@@]32C)OOC2(CCCCC2)OO4)[C@@H]2CC[C@H]([C@H](C)CCC(=O)NCCN(C)C)[C@@]12C` here?
A: The GI50 was < 10 nM.

Q: And the TGI (MOLT-4)?
A: Its TGI is > 100 µM.

Q: What about the IC50 (Plasmodium falciparum [2]; Plasmodium falciparum, W2) of the same compound?
A: The IC50 was 105 nM.

Q: And the IC90 (Plasmodium falciparum [2]; Plasmodium falciparum, W2)?
A: Its IC90 is 276 nM.

Q: And the IC50 (Plasmodium falciparum [3]; Plasmodium falciparum, D6)?
A: Its IC50 is 221 nM.

Q: What about the IC50 (Plasmodium falciparum [4]; Plasmodium falciparum, TM91C235) of the same compound?
A: Its IC50 is 221 nM.

Q: What about the GI50 (NCI) of the same compound?
A: Its GI50 is < 10 nM.

Q: What about the GI50 (NCI-H460) of the same compound?
A: The GI50 was 536 nM.

Q: What about the TGI (NCI-H460) of the same compound?
A: The TGI was 1900 nM.

Q: What about the CC50 (NCI-H460) of the same compound?
A: Its CC50 is 4.7 µM.

Q: And the GI50 (786-0)?
A: Its GI50 is 159 nM.

Q: And the TGI (786-0)?
A: Its TGI is 298 nM.

Q: And the CC50 (786-0)?
A: The CC50 was 559 nM.

Q: Which results are given for `CC(=O)O[C@H]1C[C@H]2[C@@H](CC[C@@H]3CC4(CC[C@@]32C)OOC2(CCC(C)CC2)OO4)[C@@H]2CC[C@H]([C@H](C)CCC(=O)O)[C@@]12C` (stereo in doubt; 4c)?
A: IC50 (Plasmodium falciparum [2]): 42.2 nM; IC90 (Plasmodium falciparum [2]): 89.7 nM; IC50 (Plasmodium falciparum [3]): 19.2 nM; IC90 (Plasmodium falciparum [3]): 31.7 nM; IC50 (Plasmodium falciparum [4]): 31.8 nM; IC90 (Plasmodium falciparum [4]): 93 nM

Q: Which IC50 (Plasmodium falciparum [2]) does the source give for `CC(=O)O[C@H]1C[C@H]2[C@@H](CC[C@@H]3CC4(CC[C@@]32C)OOC2(CCC(C)CC2)OO4)[C@@H]2CC[C@H]([C@H](C)CCC(N)=O)[C@@]12C` (stereo in doubt; 13) here?
A: Its IC50 is 19.4 nM.

Q: What about the IC90 (Plasmodium falciparum [2]) of the same compound?
A: Its IC90 is 118 nM.

Q: What about the IC50 (Plasmodium falciparum [3]) of the same compound?
A: Its IC50 is 22.9 nM.

Q: And the IC90 (Plasmodium falciparum [3])?
A: The IC90 was 31.4 nM.

Q: And the IC50 (Plasmodium falciparum [4])?
A: The IC50 was 28 nM.

Q: And the IC90 (Plasmodium falciparum [4])?
A: Its IC90 is 53.5 nM.

Q: Which IC50 (Plasmodium falciparum [2]) does the source give for `CCCNC(=O)CC[C@@H](C)[C@H]1CC[C@H]2[C@@H]3CC[C@@H]4CC5(CC[C@]4(C)[C@H]3C[C@H](OC(C)=O)[C@]12C)OOC1(CCC(C)CC1)OO5` (stereo in doubt; 14) here?
A: The IC50 was 10.1 nM.

Q: And the IC90 (Plasmodium falciparum [2]; Plasmodium falciparum, W2)?
A: Its IC90 is 30.5 nM.

Q: What about the IC50 (Plasmodium falciparum [3]) of the same compound?
A: The IC50 was 9.81 nM.

Q: And the IC90 (Plasmodium falciparum [3]; Plasmodium falciparum, D6)?
A: The IC90 was 20.2 nM.

Q: What about the IC50 (Plasmodium falciparum [4]) of the same compound?
A: Its IC50 is 12.3 nM.

Q: And the IC90 (Plasmodium falciparum [4])?
A: Its IC90 is 23.4 nM.

Q: Which results are given for `CCCNC(=O)CC[C@@H](C)[C@H]1CC[C@H]2[C@@H]3CC[C@@H]4CC5(CC[C@]4(C)[C@H]3C[C@H](OC(C)=O)[C@]12C)OOC1(CCC(C)CC1)OO5` (stereo in doubt; 15)?
A: GI50 (UO-31): 122 nM; TGI (UO-31): 329 nM; GI50 (LOX IMVI): 116 nM; LC50 (concentration killing 50% of cells) (LOX IMVI): 1680 nM; TGI (LOX IMVI): 391 nM; GI50 (DU-145): 663 nM; LC50 (concentration killing 50% of cells) (DU-145): 3.91 µM; TGI (DU-145): 1610 nM; GI50 (CAKI-1): 62.2 nM; TGI (CAKI-1): 163 nM; CC50 (CAKI-1): 429 nM; IC50 (Plasmodium falciparum [2]): 33.8 nM; IC90 (Plasmodium falciparum [2]): 53.7 nM; GI50 (HOP-92): 134 nM; LC50 (concentration killing 50% of cells) (HOP-92): 4.53 µM; TGI (HOP-92): 873 nM; IC50 (Plasmodium falciparum [3]): 29.3 nM; IC90 (Plasmodium falciparum [3]): 39.3 nM; IC50 (Plasmodium falciparum [4]): 34.1 nM; IC90 (Plasmodium falciparum [4]): 50.7 nM; GI50 (NCI): 62 nM
